Reference: patent US10327423B2, “Antimicrobial compounds and compositions, and uses thereof” (Akeso Biomedical, Inc., priority 2014, dated 2019)

Tests used:
[1] = test system: uropathogenic Escherichia coli UPEC-536; test: Biofilm coverage rate on glass slides (SYTO17, laser scanning microscopy); assay type: cell-based; conditions: Fe-QA 0.1 μM, 1 μM, aM and 100 μM; 72 hours
Description: (§1) Pseudomonas aeruginosa PAO-1, and a clinically isolated uropathogenic Escherichia coli UPEC-536 were routinely grown on either LB (Luria-Bertani, Oxoid, UK) agar plates at 37° C. or in broth at 37° C. with 200 rpm shaking. UV-sterilized glass slides were incubated in either 15 mL RPMI-1640 defined medium (Sigma, UK) or 15 mL RPMI-1640 with Fe-QA inoculated with diluted (OD600=0.01) bacteria from overnight cultures at 37° C. with 60 rpm shaking for 72 hours. The slides were removed from bacterial culture and washed with 15 mL phosphate buffered saline at room temperature for 5 minutes three times and then rinsed with distilled H2O. After washing, the slides were stained with 20 μM SYTO17 dye (Invitrogen, UK) at room temperature for 30 minutes. After removing excess staining dye and air-drying, the samples were examined using a Carl Zeiss LSM 700 Laser Scanning Microscope with ZEN 2009 imaging software (Carl Zeiss, Germany). The coverage rate of bacteria on the surface was analysed using open source Image J 1.44 software (National Institute of Health, US).

[2] = test system: Pseudomonas aeruginosa PAO-1; test: as above; assay type: cell-based; conditions: Fe-QA 100 μM; 72 hours
Description: as §1

[3] = test system: PAO-1 strains of Pseudomonas aeruginosa; test: Biofilm formation on contact lenses (ESEM); assay type: cell-based; conditions: FeQ 340 μM in LB; 37° C.; 24 hours
Description: To investigate biofilm formation on the contact lens, clinically determined PAO-1 strains of Pseudomonas aeruginosa were incubated with the lenses in either Luria-Bertani Media (LB) or LB with a final concentration of 340 μM FeQ at 37° C. for 24 hours in a non-shaking incubator. The lenses were then washed 6 times with PBS+0.05% Tween, before being stored overnight in PBS+0.05% Tween. In preparation for the ESEM, formaldehyde was added to a final concentration of 1% and incubated for 10 minutes in order to inactivate the bacteria. The lenses were then washed 4 times with PBS+0.05% Tween, and immediately before analysis the lenses were washed a further two times with distilled water.

H. pylori CCUG 17875 = test: H. pylori attachment to human gastric tissue sections (FITC-labelled bacteria); assay type: cell-based, Helicobacter pylori; conditions: Fe-QA 1 mM and 0.2 mM; 1 hour at room temperature
Description: The ability of H. pylori CCUG 17875 to bind to samples of human gastric tissue in the presence of Lewis b antigen, Le^b, and two concentrations of Fe-QA (1 mM and 0.2 mM) was measured. Binding was quantified by fluorescence using H. pylori that had been labeled with fluorescein using FITC (fluorescein isothiocyanate), and human gastric tissue that was embedded in […]. The bacteria were suspended in blocking buffer (1% BSA in PBS) and applied to re-hydrated histo-sections of human gastric tissue. Binding was assessed microscopically, and quantified as the average number of bacteria bound to the tissue.

Pseudomonas aeruginosa = test: Planktonic growth rate in RPMI-1640; assay type: cell-based; conditions: Fe-QA 100 μM
Description: The growth rate of Uropathogenic E. coli UPEC-536 in RPMI-1640 media over a period of 24 hours was compared to the growth rate of UPEC in RPMI-1640 media, but in the presence of 100 μM Fe-QA. The growth rate of Pseudomonas aeruginosa in RPMI-1640 media was also compared to the growth rate of Pseudomonas aeruginosa in RPMI-1640 media, but in the presence of 100 μM Fe-QA.

C. jejuni NCTC 11168 = test: ELISA of C. jejuni binding to histo-blood group antigens (BgAgs); design: species or system Campylobacter jejuni; conditions: for binding of C. jejuni to Le^b and H-II after growth in medium with Fe-QA: washed away before ELISA, one and four passages
Description: Binding of C. jejuni NCTC 11168 to the BgAgs (common ABO histo-blood group antigens), Le^b and H-II was measured after growing the bacteria in a medium that has either Fe-QA at 0.34 mM or 3.4 mM. The binding is measured by washing away the Fe-Q containing medium prior to testing the bacteria by ELISA as described below. Binding was measured after one passage and four passages (4 generations) with Fe-QA included in the medium, and compared to a control without Fe-QA.
The ELISA was performed as follows: BSA-BgAg conjugates were obtained from IsoSep, Tullinge, Sweden. Coupling of BgAgs to 96-well plates (NUNC Immobilizer Amino) was carried out by the addition of 100 μl BSA-BgAg (5 μg/ml unless stated otherwise) in sodium carbonate buffer to each well. Plates were incubated at room temperature for 2 h before unbound reagent was removed by washing three times in PBS-T. All wells were blocked by the addition of […] 1% BSA/PBS and incubated for 2 h at room temperature. After further washing in PBS-T, […] of DIG-tagged bacteria (at OD600 of 0.05) were added to each well and incubated overnight at 4° C. Plates were washed three times in PBS-T before […] anti-digoxigenin-POD solution (Roche Diagnostics; 1 in 5000 diluted in 1% BSA/PBS) was added and incubated for 1 h at room temperature. Plates were again vigorously washed in PBS-T and color developed by adding 100 μl ABTS substrate (Roche). Plates were read with an ELISA reader (Biotek EL800) at an absorbance of 405 nm. Specific binding was determined by subtracting the binding of each strain to BSA (typically OD405 0.07-0.09) from the binding to each BSA-BgAg conjugate. Inhibition assays shown in FIG. 4B were carried out as above but after the removal of the blocking solution, DIG-labeled C. jejuni was pre-incubated for 4 h with an Fe-QA solution (0.34 mM) before being added to each well.

With `O=C1[O][Fe]23([O]C(=O)[C@]4(C[C@@H](O)[C@H](O)[C@H](O)C4)[O]2)([O]C(=O)[C@]2(C[C@@H](O)[C@H](O)[C@H](O)C2)[O]3)[O][C@@]12C[C@@H](O)[C@H](O)[C@H](O)C2` [FeQ, a complex of quinic acid with Fe III] the “biofilm formation (coverage rate on glass slide)” value [1] was “inhibits”, the “biofilm formation (coverage rate on glass slide)” value [2] was “inhibits” and the “biofilm formation on contact lens (ESEM)” value [3] was “inhibits biofilm formation”. The “binding of H. pylori to human gastric tissue” value (H. pylori CCUG 17875) was “significantly reduced”, the planktonic growth rate (Pseudomonas aeruginosa) was “does not inhibit the growth” and the “binding of C. jejuni to Le^b and H-II after growth in medium with Fe-QA” value (C. jejuni NCTC 11168; Fe-QA 0.34 mM in medium) was “statistically significant decrease”. For the same molecule, the “binding of C. jejuni to Le^b and H-II after growth in medium with Fe-QA” value (C. jejuni NCTC 11168; Fe-QA 3.4 mM in medium) was “marked decrease in binding” and the “inhibition of binding of C. jejuni 11168 to BgAgs (Core-I, Core-II, H-I, H-II, Leb, Ley, Lex)” value (C. jejuni NCTC 11168; bacteria pre-incubated 4 h with Fe-QA 0.34 mM) was “significant inhibition of binding”.
